Results from the supplement of paper PMC10307832.

Experiments:
Assay in all cases: relative viability (nuclei count vs DMSO), 5 days (fraction); higher = more cells survive
[1] = compound: CC1=CC(=CC=C1)NC2=NC(=CS2)C3=CC=NC=C3 + CS(=O)(=O)CCNCc1ccc(-c2ccc3ncnc(Nc4ccc(OCc5cccc(F)c5)c(Cl)c4)c3c2)o1 [Lapatinib] (partner 2 µM)
Outline: (§1)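 Lung cancer cell lines were pin-tool dosed in 1536-well plates on the day after seeding, with either a lone drug or a fixed anchor-drug dose plus five library-drug doses (not always all listed) in √10 steps. Nuclei were counted on 4× images after 5 days. Relative viability is the ratio of treated-well to vehicle-well nuclei counts, with each value a median of duplicate plates.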

[2] = compound: Cc1ccc(NC(=O)c2ccc(CN3CCN(C)CC3)cc2)cc1Nc1nc(-c2cccnc2)cs1 [Masitinib] + CC(=O)c1c(C)c2cnc(Nc3ccc(N4CCNCC4)cn3)nc2n(C2CCCC2)c1=O [Palbociclib] (partner 0.5 µM)
Outline: as §1

[3] = compound: Cc1ccc(NC(=O)c2ccc(CN3CCN(C)CC3)cc2)cc1Nc1nc(-c2cccnc2)cs1 [Masitinib] + N=C(N)NC(=N)NCCc1ccccc1 [Phenformin] (partner 250 µM)
Outline: as §1

[4] = compound: Cc1ccc(NC(=O)c2ccc(CN3CCN(C)CC3)cc2)cc1Nc1nc(-c2cccnc2)cs1 [Masitinib] + CCNC(=O)c1noc(-c2cc(C(C)C)c(O)cc2O)c1-c1ccc(CN2CCOCC2)cc1 [Luminespib] (partner 0.01 µM)
Outline: as §1

LK-2
relative viability ([1]; first compound 0.08 µM): 0.784 | relative viability ([1]; first compound 0.253 µM): 0.903 | relative viability ([1]; first compound 0.8 µM): 1.09 | relative viability ([1]; first compound 8 µM): 1.33 | relative viability ([2]; first compound 0.01 µM): 0.691 | relative viability ([2]; first compound 0.03162 µM): 0.697 | relative viability ([2]; first compound 0.1 µM): 0.666 | relative viability ([2]; first compound 0.3162 µM): 0.76 | relative viability ([2]; first compound 1 µM): 0.762 | relative viability ([3]; first compound 0.01 µM): 0.481 | relative viability ([3]; first compound 0.03162 µM): 0.347 | relative viability ([3]; first compound 0.1 µM): 0.423 | relative viability ([3]; first compound 0.3162 µM): 0.535 | relative viability ([3]; first compound 1 µM): 0.43 | relative viability ([4]; first compound 0.01 µM): 0.183 | relative viability ([4]; first compound 0.03162 µM): 0.183 | relative viability ([4]; first compound 0.1 µM): 0.132 | relative viability ([4]; first compound 0.3162 µM): 0.151 | relative viability ([4]; first compound 1 µM): 0.175

NCI-H2228
relative viability ([1]; first compound 0.08 µM): 0.948 | relative viability ([1]; first compound 0.253 µM): 1.11 | relative viability ([1]; first compound 0.8 µM): 0.884 | relative viability ([1]; first compound 2.53 µM): 0.823 | relative viability ([1]; first compound 8 µM): 0.883 | relative viability ([2]; first compound 0.01 µM): 0.518 | relative viability ([2]; first compound 0.03162 µM): 0.723 | relative viability ([2]; first compound 0.1 µM): 1.12 | relative viability ([2]; first compound 0.3162 µM): 0.844 | relative viability ([2]; first compound 1 µM): 0.486 | relative viability ([3]; first compound 0.01 µM): 0.347 | relative viability ([3]; first compound 0.03162 µM): 0.302 | relative viability ([3]; first compound 0.1 µM): 0.335 | relative viability ([3]; first compound 0.3162 µM): 0.398 | relative viability ([3]; first compound 1 µM): 0.215 | relative viability ([4]; first compound 0.01 µM): 0.172 | relative viability ([4]; first compound 0.03162 µM): 0.189 | relative viability ([4]; first compound 0.1 µM): 0.16 | relative viability ([4]; first compound 0.3162 µM): 0.148 | relative viability ([4]; first compound 1 µM): 0.15

NCI-H322M
relative viability ([1]; first compound 0.08 µM): 0.538 | relative viability ([1]; first compound 0.253 µM): 0.518 | relative viability ([1]; first compound 0.8 µM): 0.519 | relative viability ([1]; first compound 2.53 µM): 0.572 | relative viability ([1]; first compound 8 µM): 0.662 | relative viability ([2]; first compound 0.01 µM): 0.483 | relative viability ([2]; first compound 0.03162 µM): 0.487 | relative viability ([2]; first compound 0.1 µM): 0.426 | relative viability ([2]; first compound 0.3162 µM): 0.531 | relative viability ([2]; first compound 1 µM): 0.454 | relative viability ([3]; first compound 0.01 µM): 0.789 | relative viability ([3]; first compound 0.03162 µM): 0.799 | relative viability ([3]; first compound 0.1 µM): 0.741 | relative viability ([3]; first compound 0.3162 µM): 0.75 | relative viability ([3]; first compound 1 µM): 0.715 | relative viability ([4]; first compound 0.01 µM): 0.875 | relative viability ([4]; first compound 0.03162 µM): 0.924 | relative viability ([4]; first compound 0.1 µM): 0.878 | relative viability ([4]; first compound 0.3162 µM): 0.876 | relative viability ([4]; first compound 1 µM): 0.812

NCI-H1993
relative viability ([1]; first compound 0.08 µM): 0.685 | relative viability ([1]; first compound 0.253 µM): 0.802 | relative viability ([1]; first compound 0.8 µM): 0.7 | relative viability ([1]; first compound 2.53 µM): 0.869 | relative viability ([1]; first compound 8 µM): 0.778 | relative viability ([2]; first compound 0.01 µM): 0.674 | relative viability ([2]; first compound 0.03162 µM): 0.527 | relative viability ([2]; first compound 0.1 µM): 0.536 | relative viability ([2]; first compound 0.3162 µM): 0.516 | relative viability ([2]; first compound 1 µM): 0.654 | relative viability ([3]; first compound 0.01 µM): 0.5 | relative viability ([3]; first compound 0.03162 µM): 0.469 | relative viability ([3]; first compound 0.1 µM): 0.603 | relative viability ([3]; first compound 0.3162 µM): 0.523 | relative viability ([3]; first compound 1 µM): 0.451 | relative viability ([4]; first compound 0.01 µM): 0.851 | relative viability ([4]; first compound 0.03162 µM): 0.791 | relative viability ([4]; first compound 0.1 µM): 0.701 | relative viability ([4]; first compound 0.3162 µM): 0.7 | relative viability ([4]; first compound 1 µM): 0.766

NCI-H2170
relative viability ([1]; first compound 0.08 µM): 0.259 | relative viability ([1]; first compound 0.253 µM): 0.255 | relative viability ([1]; first compound 0.8 µM): 0.255 | relative viability ([1]; first compound 2.53 µM): 0.275 | relative viability ([1]; first compound 8 µM): 0.264 | relative viability ([2]; first compound 0.01 µM): 0.383 | relative viability ([2]; first compound 0.03162 µM): 0.331 | relative viability ([2]; first compound 0.1 µM): 0.438 | relative viability ([2]; first compound 0.3162 µM): 0.403 | relative viability ([2]; first compound 1 µM): 0.417 | relative viability ([3]; first compound 0.01 µM): 0.354 | relative viability ([3]; first compound 0.03162 µM): 0.396 | relative viability ([3]; first compound 0.1 µM): 0.386 | relative viability ([3]; first compound 0.3162 µM): 0.386 | relative viability ([3]; first compound 1 µM): 0.378 | relative viability ([4]; first compound 0.01 µM): 0.645 | relative viability ([4]; first compound 0.03162 µM): 0.689 | relative viability ([4]; first compound 0.1 µM): 1.02 | relative viability ([4]; first compound 0.3162 µM): 0.631 | relative viability ([4]; first compound 1 µM): 1.02

LXF-289
relative viability ([1]; first compound 0.08 µM): 0.815 | relative viability ([1]; first compound 0.253 µM): 0.93 | relative viability ([1]; first compound 0.8 µM): 0.938 | relative viability ([1]; first compound 2.53 µM): 0.823 | relative viability ([1]; first compound 8 µM): 0.807 | relative viability ([2]; first compound 0.01 µM): 0.553 | relative viability ([2]; first compound 0.03162 µM): 0.6 | relative viability ([2]; first compound 0.1 µM): 0.655 | relative viability ([2]; first compound 0.3162 µM): 0.627 | relative viability ([2]; first compound 1 µM): 0.595 | relative viability ([3]; first compound 0.01 µM): 0.461 | relative viability ([3]; first compound 0.03162 µM): 0.514 | relative viability ([3]; first compound 0.1 µM): 0.477 | relative viability ([3]; first compound 0.3162 µM): 0.522 | relative viability ([3]; first compound 1 µM): 0.451 | relative viability ([4]; first compound 0.01 µM): 0.581 | relative viability ([4]; first compound 0.03162 µM): 0.796 | relative viability ([4]; first compound 0.1 µM): 0.775 | relative viability ([4]; first compound 0.3162 µM): 0.746 | relative viability ([4]; first compound 1 µM): 0.541

NCI-H2405
relative viability ([1]; first compound 0.08 µM): 0.853 | relative viability ([1]; first compound 0.253 µM): 1 | relative viability ([1]; first compound 0.8 µM): 0.919 | relative viability ([1]; first compound 2.53 µM): 0.936 | relative viability ([1]; first compound 8 µM): 0.813 | relative viability ([2]; first compound 0.01 µM): 0.48 | relative viability ([2]; first compound 0.03162 µM): 0.504 | relative viability ([2]; first compound 0.1 µM): 0.508 | relative viability ([2]; first compound 0.3162 µM): 0.499 | relative viability ([2]; first compound 1 µM): 0.514 | relative viability ([3]; first compound 0.01 µM): 0.379 | relative viability ([3]; first compound 0.03162 µM): 0.366 | relative viability ([3]; first compound 0.1 µM): 0.399 | relative viability ([3]; first compound 0.3162 µM): 0.459 | relative viability ([3]; first compound 1 µM): 0.247 | relative viability ([4]; first compound 0.01 µM): 0.606 | relative viability ([4]; first compound 0.03162 µM): 0.64 | relative viability ([4]; first compound 0.1 µM): 0.692 | relative viability ([4]; first compound 0.3162 µM): 0.521 | relative viability ([4]; first compound 1 µM): 0.571

NCI-H2023
relative viability ([1]; first compound 0.08 µM): 0.661 | relative viability ([1]; first compound 0.253 µM): 0.698 | relative viability ([1]; first compound 0.8 µM): 0.771 | relative viability ([1]; first compound 2.53 µM): 0.749 | relative viability ([1]; first compound 8 µM): 0.473 | relative viability ([2]; first compound 0.01 µM): 0.311 | relative viability ([2]; first compound 0.03162 µM): 0.385 | relative viability ([2]; first compound 0.1 µM): 0.323 | relative viability ([2]; first compound 0.3162 µM): 0.259 | relative viability ([2]; first compound 1 µM): 0.331 | relative viability ([3]; first compound 0.01 µM): 0.409 | relative viability ([3]; first compound 0.03162 µM): 0.371 | relative viability ([3]; first compound 0.1 µM): 0.397 | relative viability ([3]; first compound 0.3162 µM): 0.429 | relative viability ([3]; first compound 1 µM): 0.317 | relative viability ([4]; first compound 0.01 µM): 0.61 | relative viability ([4]; first compound 0.03162 µM): 0.664 | relative viability ([4]; first compound 0.1 µM): 0.786 | relative viability ([4]; first compound 0.3162 µM): 0.69 | relative viability ([4]; first compound 1 µM): 0.753
